Assay [1] addresses Glutamate receptor ionotropic, NMDA 2C (Rattus norvegicus) (UniProt Q00961). Put plainly: Effective dose required for the action of NMDA receptor activity in maximal electroshock anticonvulsant assay. It counts as functional.
Assay [2] concerns the target Glutamate receptor 4 (Homo sapiens) (UniProt P48058). Nature of the assay: Effective dose required for the action of AMPA receptor antagonistic activity in maximal electroshock anticonvulsant assay. It counts as functional. (In the maximal electroshock model the usual endpoint is tonic extension of the hind limbs.)

Chain of Glutamate receptor ionotropic, NMDA 2C (Rattus norvegicus) (Q00961 20-1237 limits assumed): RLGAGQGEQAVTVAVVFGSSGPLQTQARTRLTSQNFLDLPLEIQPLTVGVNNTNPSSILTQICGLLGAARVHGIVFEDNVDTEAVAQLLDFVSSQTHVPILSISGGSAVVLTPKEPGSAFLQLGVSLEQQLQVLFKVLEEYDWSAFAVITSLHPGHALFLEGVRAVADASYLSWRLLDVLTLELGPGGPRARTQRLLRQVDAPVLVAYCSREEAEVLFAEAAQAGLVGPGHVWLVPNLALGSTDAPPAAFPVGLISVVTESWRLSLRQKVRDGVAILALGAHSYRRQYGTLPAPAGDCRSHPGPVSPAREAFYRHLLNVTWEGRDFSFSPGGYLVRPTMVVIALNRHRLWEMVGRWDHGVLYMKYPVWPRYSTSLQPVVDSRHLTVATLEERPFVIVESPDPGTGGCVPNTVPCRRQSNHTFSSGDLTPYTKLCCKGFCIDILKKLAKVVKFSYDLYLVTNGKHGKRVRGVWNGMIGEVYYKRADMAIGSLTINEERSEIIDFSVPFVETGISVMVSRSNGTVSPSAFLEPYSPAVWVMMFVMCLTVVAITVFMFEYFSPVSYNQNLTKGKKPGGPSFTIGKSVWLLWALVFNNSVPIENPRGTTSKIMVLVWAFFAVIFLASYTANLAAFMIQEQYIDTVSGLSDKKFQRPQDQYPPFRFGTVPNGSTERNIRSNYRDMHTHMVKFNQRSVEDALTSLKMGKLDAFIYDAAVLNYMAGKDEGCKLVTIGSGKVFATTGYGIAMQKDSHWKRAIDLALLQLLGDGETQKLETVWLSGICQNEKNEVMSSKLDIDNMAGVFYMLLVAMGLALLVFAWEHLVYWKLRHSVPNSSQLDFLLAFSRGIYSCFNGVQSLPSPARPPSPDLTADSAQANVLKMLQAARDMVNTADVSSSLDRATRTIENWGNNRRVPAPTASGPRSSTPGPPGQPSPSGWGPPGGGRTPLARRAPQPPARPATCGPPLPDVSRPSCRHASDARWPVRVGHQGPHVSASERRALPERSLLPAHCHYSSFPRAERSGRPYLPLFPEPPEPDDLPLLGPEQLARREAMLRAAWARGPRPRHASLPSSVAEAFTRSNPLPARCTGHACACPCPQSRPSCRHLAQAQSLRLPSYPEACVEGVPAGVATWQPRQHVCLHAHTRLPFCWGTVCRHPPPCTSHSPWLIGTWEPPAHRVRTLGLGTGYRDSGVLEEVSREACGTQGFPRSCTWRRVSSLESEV
Chain of Glutamate receptor 4 (Homo sapiens) (P48058 whole entry): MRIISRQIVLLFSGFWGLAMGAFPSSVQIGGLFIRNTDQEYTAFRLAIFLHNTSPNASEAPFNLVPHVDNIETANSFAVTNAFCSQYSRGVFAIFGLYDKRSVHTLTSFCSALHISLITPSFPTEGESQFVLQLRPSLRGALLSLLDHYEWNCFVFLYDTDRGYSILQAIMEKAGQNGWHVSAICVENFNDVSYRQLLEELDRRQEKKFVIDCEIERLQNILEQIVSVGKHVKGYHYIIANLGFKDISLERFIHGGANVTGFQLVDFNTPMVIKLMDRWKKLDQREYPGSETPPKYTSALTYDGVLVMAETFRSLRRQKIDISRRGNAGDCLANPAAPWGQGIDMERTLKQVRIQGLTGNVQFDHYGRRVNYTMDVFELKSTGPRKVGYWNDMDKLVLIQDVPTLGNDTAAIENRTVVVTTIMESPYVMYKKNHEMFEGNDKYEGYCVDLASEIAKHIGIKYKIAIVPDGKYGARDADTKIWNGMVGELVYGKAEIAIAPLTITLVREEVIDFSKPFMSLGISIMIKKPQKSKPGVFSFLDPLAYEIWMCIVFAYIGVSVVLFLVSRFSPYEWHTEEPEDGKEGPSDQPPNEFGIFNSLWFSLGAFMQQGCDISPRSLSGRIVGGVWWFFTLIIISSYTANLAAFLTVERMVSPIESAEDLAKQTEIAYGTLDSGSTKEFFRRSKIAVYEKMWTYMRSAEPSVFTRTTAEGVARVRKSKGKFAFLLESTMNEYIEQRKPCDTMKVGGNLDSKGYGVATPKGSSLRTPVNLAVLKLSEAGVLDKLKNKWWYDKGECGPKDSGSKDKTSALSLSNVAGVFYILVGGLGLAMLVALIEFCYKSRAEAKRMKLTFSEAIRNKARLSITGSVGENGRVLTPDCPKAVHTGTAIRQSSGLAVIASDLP

The ED50 is the dose at which the effect has come halfway, by size or by number of responders. A high value points to a need for a large dose. As for `NS(=O)(=O)c1cccc2c1c([N+](=O)[O-])cc1nc(O)c(O)nc12`, it took a dose of 13.1 mg/kg to reach the 50% effect level in assay [1] (ED50).

Turning to `CN1CCc2c([N+](=O)[O-])cc3nc(O)c(O)nc3c2C1`, the 50% effect level in assay [2] (ED50) was put at a dose of 0.44 mg/kg.

For the origin of these results see ChEMBL document CHEMBL1130496, “Synthesis of N-desmethyl PNQX: elaboration into an immunogenic conjugate and a radioiodinated ligand; radioimmunoassay for the AMPA/NMDA antagonist, PNQX” (Bioorg Med Chem Lett, 1997).
